Results: patent publication US20140271847A1, “FORMULATIONS AND METHODS FOR RAPID PENILE ERECTIONS” (SatisPharma, LLC, priority 2013, published 2014)
Where a name gives a salt, the structure may show the parent alone.

Legend:
[1] = cited from earlier work
[2] = system: penis; experiment: Time to penile erection / firmness after taking the ED medication or formulation; type: in vivo, human; conditions: blood circulation limited to about 50%; for time it remains effective / time to become effective: normal dose of 100 mg Viagra® or 10 mg Levitra®, one subject
Description: Responses of individuals to ED medications may vary widely from one to another and from time to time. The nature and intensity of emotional and physical stimulation are significant factors, and the health of the individual can be significant. Fatigue, time of day, time since last coitus or ejaculation, and blood circulation are factors influencing response. One particular subject had no response to Cialis®. Their heart damage and occluded artery limit blood circulation to about 50%. Thus this particular subject is not a good benchmark for measuring the effectiveness of each formulation; this particular subject experiences a normal dose of 100 mg Viagra® or 10 mg Levitra® usually takes about 2 hours to become effective and then remains effective for about 8 hours (double the usual times for a person with normal blood circulation). Nevertheless, this subject has achieved erection and cotius within 30 minutes using some formulations of this invention.

[3] = Solubility of ED medications as stated in the description; type: physicochemical
Description: In order for an ED medication to be absorbed into mucosal tissues, it must first be dissolved in a medium of transport. […] Sildenafil citrate is also more soluble in ethanol than water and in propylene glycol than in water.

[4] = Solubilities of ED medications in solvents known to permeate the skin (Example 1); type: physicochemical
Description: A series of experiments were performed in order to learn the solubilities of ED medications in solvents known to permeate the skin safely.

Row | Structure (SMILES) | solubility in alcohols (in words) ([1]; alcohols) | solubility in water (in words) [1] | time it remains effective [2] | time to become effective [2] | response to ED medication ([2]; one particular subject) | solubility in nicotine [3] | solubility in ethanol compared with water ([1]; ethanol versus water) | solubility in propylene glycol compared with water ([1]; propylene glycol versus water) | solubility in water relative to pH 7.0 ([1]; water at pH=4, relative to 3.5 mg/ml at pH=7.0) | solubility in water ([1]; water at pH=7.0) [µg/mL] | Result (solubility) ([4]; 35 mg sildenafil citrate in diethylene glycol monoethyl ether, 10 ml) | Result (solubility) ([4]; 35 mg sildenafil citrate in ethanol, 190 proof, 10 ml) | Result (solubility) ([4]; 35 mg sildenafil citrate in glycerin, 10 ml + citric acid, 150 mg) | Result (solubility) ([4]; 35 mg sildenafil citrate in isopropyl myristate, 10 ml) | Result (solubility) ([4]; 35 mg sildenafil citrate in propylene glycol, 10 ml) | Result (solubility) ([4]; 35 mg sildenafil citrate in triacetin 10 ml) | Result (solubility) ([4]; 49 mg sildenafil citrate in nicotine, 2 ml) | Result (solubility) ([4]; 70 mg sildenafil citrate in ethanol, 190 proof, 10 ml) | Result (solubility) ([4]; 70 mg sildenafil citrate in propylene glycol, 10 ml)
1 | CCCc1nc(C)c2c(=O)[nH]c(-c3cc(S(=O)(=O)N4CCN(CC)CC4)ccc3OCC)nn12 [Vardenafil, vardenafil hydrochloride] | freely soluble | freely soluble | about 8 hours | about 2 hours |  |  |  |  |  |  |  |  |  |  |  |  |  |  | 
2 | CN1CC(=O)N2[C@H](c3ccc4c(c3)OCO4)c3[nH]c4ccccc4c3C[C@@H]2C1=O [Tadalafil, tadalafil] |  | freely soluble |  |  | no response |  |  |  |  |  |  |  |  |  |  |  |  |  | 
3 | CCCc1nn(C)c2c(=O)[nH]c(-c3cc(S(=O)(=O)N4CCN(C)CC4)ccc3OCC)nc12.O=C(O)CC(O)(CC(=O)O)C(=O)O [sildenafil citrate] |  |  | about 8 hours | about 2 hours |  | surprisingly high solubility | more soluble | more soluble | about triple | 3500 | slightly soluble | fully soluble | dispersion | mostly soluble | fully soluble | dispersion | fully soluble | fully soluble | mostly soluble
